Experiments:
[1] = test system: CRE BAG 2 cells; experiment: Peptidase substrates in live cells, fluorescence microscopy (Example 59); assay type: cell-based; settings: 1 μM, 0.5 μM or 0.1 μM, 37° C., 30 minutes
Description: CRE BAG 2 cells obtained from American Type Culture Collection Co., Rockville, Md. are used. They are grown in a humidified atmosphere of 5% CO2 in D-MEM supplemented with 10% calf serum, 50 μg/mL gentamycin, 300 μg/mL L-glutamine and 10 mM HEPES, pH 7.4. 1 mM stock solutions of Compound 13-Leu (Example 13) and Compound 13-Arg substrate are prepared in DMSO. CRE BAG 2 cells are trypsinized, washed with phosphate-buffered saline, pH 7.2 and resuspended in 1 mL of the same buffer. 1 μL, 0.5 μL or 0.1 μL of the stock reagents is added to 1 mL of the cell suspension to obtain a final concentration of 1 μM, 0.5 μM or 0.1 μM. Incubation is carried out at 37° C. for 30 minutes. Cells are centrifuged to form a pellet, the supernatant is discarded and the cells are washed with PBS, pH 7.2 and suspended in the same buffer. Cells are mounted on slides and observed by fluorescence microscopy using filters optimized for fluorescein.

[2] = test system: P3×63AG8 cells; experiment: Peptidase substrate in live cells, flow cytometry (Example 58); assay type: cell-based; settings: 1 μM, 37° C., 30 minutes
Description: P3×63AG8 cells obtained from American Type Culture Collection Co., Rockville, Md. are used. They are grown in a humidified atmosphere of 5% CO2 in Dulbecco's modified Eagle's medium (D-MEM) supplemented with 10% calf serum, 50 μg/mL gentamycin, 300 μg/mL L-glutamine and 10 mM HEPES, pH 7.4. Compound 13-Arg (Prepared as in Examples 12 and 13) is dissolved at 1 mM in DMSO. The P3×63AG8 cells are trypsinized, washed with phosphate-buffered saline (PBS), pH 7.2 and resuspended in 1 mL of the same buffer. 1 μL of the stock reagent is added to 1 mL of the cell suspension to obtain a final concentration of 1 μM. Incubation is carried out at 37° C. for 30 minutes. Cells are centrifuged to form a pellet, the supernatant is discarded, the cells are washed twice with PBS, pH 7.2 and resuspended in 300 μL of the same buffer. Cells are analyzed by flow cytometry using the Becton-Dickinson FACS Vantage flow cytometer.

[3] = test system: GSH in BPAE cell lysate; experiment: Determination of GSH in cell extracts (Example 56); assay type: biochemical, Bovine; settings: 0.2 mM Compound 1, 5 μg GST, 2 hours, 37° C.; FIG. 3
Description: (§1) Cultures of BPAE cells are trypsinized, pelleted, washed once in PBS and resuspended in 200 μL of distilled water in numbers from 200 to 1,000,000. The cells are lysed by repeated freezing and thawing and spun for 10 min. in a microfuge to eliminate the insoluble particles from the lysate, which contains both GSH and GST.
To 150 μL of the lysate are added 5.5 μL of 1.8M MOPS pH 7.5, Compound 1 at the final concentration of 0.2 mM, 5 μg GST and distilled water to obtain the final volume of 200 μL. The reaction mixtures are incubated for 2 hours at 37° C. and analyzed by TLC by spotting 2 μL of each sample and developing as described in Example 48. The spots corresponding to the product formed by the different amounts of cells, because of their endogenous GSH is quantitated on a plate scanner as described in Example 53. […] Quantitation of GSH can also be performed by separating the product from the reaction mixture by HPLC as in Example 52.

[4] = test system: glutathione transferase (endogenous GST in BPAE cell lysates); experiment: Determination of GST activity in cell extracts (Example 56); assay type: biochemical, Bovine
Description: as §1
The assay for the amount of GST activity present in cell lysates (endogenous GST) is performed using the same system as above with the exception that 5 mM GSH is added to the reaction mixture to ensure that there is a sufficient excess of GSH to saturate the enzyme. The reaction is incubated for one hour at 37° C. and 2 μL of each sample are spotted on TLC plates and developed as described in Example 48. Product formation is quantitated using a plate scanner as for GSH determination (as in Example 53). […] Similarly, this assay system can be used to quantitate GST-fusion proteins.

[5] = test system: glutathione transferase (GST); experiment: Reactivity with glutathione catalyzed by glutathione transferase, TLC (Example 50); assay type: biochemical
Description: The suitability of Compound 1 (Example 1) and 5-(pentachlorobenzoylamino)fluorescein (Compound 48) as substrates for glutathione transferase (GST) in the presence of excess glutathione (GSH) is tested in vitro as follows: 5 mM GSH, 0.5 mM substrate (Compound 1 or Compound 48) and 20 micrograms GST (Sigma #G-6511, 70 units/mg) are combined in 0.1M phosphate buffer, pH 8.0, for 1 hour at 37° C. The reaction is terminated by spotting approximately 3 μL on silica gel TLC plates. The plate is developed using 1-butanol: methanol: water (3:1:1). […] Analysis of the reaction mixture by HPLC as in Example 52 confirms that the reaction product of Compound 1 with GSH is identical to the authentic Compound 1-GSH adduct as prepared in Example 45 (Compound 45).

[6] = test system: GST; experiment: HPLC analysis of the in vitro reaction mixture (Example 52); assay type: biochemical; settings: with GST, absorbance at 500 nm
Description: To determine whether a compound is a selective substrate for glutathione transferase, a 2 mM ethanol stock solution of a polyhalogenated derivative (for example the series of butylbenzamides described in Example 49), reduced glutathione (phosphate buffer stock solution, 5 mM) and glutathione S-transferase (phosphate buffer stock solution, 1 unit/mL) are incubated at 25° C. in the mixture of 98% 0.1M K2 HPO4 -KH2 PO4 buffer (pH7.5) that contains 1 mM EDTA and 2% ethanol for 2 h. The reaction is then stopped by adding 10% H2 O2.
Reaction mixtures with and without GST using Compound 1 as the substrate, are prepared as described in Example 48. The solutions are mixed overnight with three volumes of ethyl acetate followed by centrifugation at 15,000×g for 30 min to separate the organic and aqueous layers. HPLC analysis using a Rainin HPLC equipped with a C18, 5 μm, 100 Å, 4.6×250 mm MICROSORB-MV reverse phase column. Products are separated in 30 min with a gradient of 5% to 95% solvent B in Solvent A at a flow rate of 1 mL/min, where solvent A is 0.1M triethylammonium acetate, pH 7.0, and solvent B is acetonitrile (see FIG. 1). Products are detected by reading the absorbance at 500 nm. Peaks are identified and, if desired, quantitated by comparing retention times with authentic samples of the glutathione adduct of Compound 45 (Example 45).

[7] = Quantitation of GSH in enzymatic reactions, TLC (Example 55); assay type: biochemical; settings: 0.5 mM Compound 1, 10 μg/mL GST, limiting GSH, 1 hour, 37° C., UV hand lamp
Description: (§2) A set of reactions as described in Example 48 are performed using limiting concentrations of GSH (0.1 μM-1 mM), to measure the range of sensitivity of the assay for quantitating GSH. Alternatively, the reaction is performed using excess GSH and limiting GST (0.1 μg/mL-20 μg/mL) to determine the suitability of the method to detect and quantitate glutathione transferase activity of isolated enzymes or of GST-fusion proteins.
(§3) In one hour reactions at 37° C., using 0.5 mM Compound 1 (Example 1) as the substrate, 10 μg/mL GST and limiting GSH, the minimum amount of fluorescent Compound 1-GSH adduct (Compound 45) detectable by simple illumination with a long wavelength UV hand lamp corresponds to ~2-4 picomoles of GSH. When using excess GSH and variable amounts of GST, it is possible to detect by visible inspection the reaction product in solutions containing 5 μg/mL of enzyme spotted on TLC in 2 μL amounts: this spot corresponds to ~10 ng of GST. […] Quantitative measurement of the amount of product formed can be performed by either HPLC (Example 52), using a plate scanner (Example 53) or by extraction of the scraped silica gel spots into methanol or pH 8.0 buffer and measurement of the fluorescence against that of a series of dilutions of the authentic adduct (Example 45) in the same buffer using a fluorometer or microplate reader.

[8] = test system: GST; experiment: Quantitation of GST in enzymatic reactions, TLC (Example 55); assay type: biochemical; settings: excess GSH, 2 μL spotted on TLC
Description: as §2, §3

[9] = test system: β-galactosidase; experiment: Reactivity with thiol groups of proteins (Example 51); assay type: biochemical
Description: To test the specificity of the Compound 1 reaction with GSH versus thiol-containing proteins, β-galactosidase (a protein that has several free thiols) is dissolved at 5 mg/mL in deoxygenated 0.1M phosphate, 0.1M NaCl, pH 7.5, and reacted under anaerobic conditions with 5-(pentafluorobenzoylamino)fluorescein diacetate (Compound 4, Example 3) or Compound 1 dissolved at 10 mg/mL in DMSO at a molar ratio of the reagent to protein of 15. This assay is performed both in the presence and absence of 30 mM N-ethyl maleimide (NEM) as an effective thiol-blocking reagent. The reactions are incubated at room temperature for 1 hour, stopped by the addition of hydroxylamine, pH 9 to a final concentration of 0.15M, and incubated for 2 more hours to hydrolyze the acetate groups. […] Consequently, no reaction of either Compound 4 or Compound 1 with β-galactosidase is detected under the described conditions.

[10] = test system: CRE BAG 2 cells; experiment: Marker gene expression by flow cytometry, CRE BAG 2 (Example 62); assay type: cell-based; settings: 0.2 mM dye, 37° C., 30 minutes
Description: (§4) NIH-3T3 and CRE BAG2 cells are maintained as in Example 61. A 10 mM stock solution of (((3 -(2-pentafluorobenzoyl)amino)ethyl)amino)carbonyl)-umbelliferyl β-D-galactopyranoside (Compound 37; Example 37) is prepared in DMF. A 10 mM stock solution of 4-chloromethylcoumarin β-D-galactopyranoside (CMCG; Molecular Probes #D-2921) is prepared in a 1:1 mixture of DMSO and water. NIH-3T3 and CRE BAG2 cells are trypsinized, washed with phosphate buffered saline (PBS), pH 7.2 and resuspended in D-MEM with 10% BCS. To separate 1 mL cell suspensions are added the dye stock solutions to obtain final concentrations of 0.2 mM dye. Incubation is carried out at 37° C. for 30 minutes. Cells are centrifuged to form a pellet, the supernatant is discarded and the cells are washed twice with PBS, pH 7.2 and suspended in the same buffer. Cells are analyzed by flow cytometry using a Becton-Dickinson FACS Vantage flow cytometer. […] However, CRE BAG 2 cells stained with the Compound 37 show fluorescence that is greater than 25-fold that shown by autofluorescent control cells. For the CRE BAG 2 cells stained with CMCG, the fluorescence intensity is only 8-fold greater than that of the autofluorescent control cells.

[11] = test system: NIH-3T3 cells; experiment: Marker gene expression by flow cytometry, NIH-3T3 (Example 62); assay type: cell-based; settings: 0.2 mM dye, 37° C., 30 minutes
Description: as §4

N=C(N)NCCC[C@H](N)C(=O)Nc1ccc2c(c1)Oc1cc(NC(=O)c3c(F)c(F)c(F)c(F)c3F)ccc1C21OC(=O)c2ccccc21 (stereo partly drawn) [Compound 13-Arg]
staining of cells, fluorescence microscopy [1]: punctate green fluorescence associated with organelles | cell fluorescence (FL 1 channel) [2]: fluorescence levels greater than the cell's autofluorescence

O=C1OC2(c3ccc(O)cc3Oc3cc(O)ccc32)c2ccc(NC(=O)c3c(F)c(F)c(F)c(F)c3F)cc21 [Compound 1, 5-(pentafluorobenzoylamino)fluorescein]
plot of fluorescence intensity of Compound 1-GSH adduct versus number of cells (GSH) [3]: good linearity | usefulness for determination of GST activity in cell lysates ([4]; 5 mM GSH, one hour, 37° C., FIG. 4): useful for the determination of the activity of GST activity in cells lysates | adduct formation in absence of enzyme ([4]; high concentration of both substrate and GSH): a trace amount of adduct forms | adduct formation with glutathione in presence of GST ([5]; 5 mM GSH, 0.5 mM substrate, 20 micrograms GST, pH 8.0, 1 hour, 37° C.): forms a fluorescent adduct with glutathione | reaction in control without GST ([5]; GST omitted): very low or no reaction | products in aqueous layer by HPLC [6]: two major peaks with elution times corresponding to the Compound 45 and to the unreacted Compound 1 | minimum amount of adduct detectable, corresponding to GSH [7]: 2-4 picomoles | amount of GST corresponding to detectable spot [8]: ~ 10 ng | enzyme (GST) concentration detectable by visible inspection ([8]; variable GST, 1 hour, 37° C.): 5 µg/mL | fluorescent proteins formed, gel electrophoresis ([9]; molar ratio of reagent to protein 15): no fluorescent proteins are formed | reaction with β-galactosidase, TLC ([9]; molar ratio of reagent to protein 15, pH 7.5, 1 hour, with and without 30 mM NEM): no reaction

O=C(NCCNC(=O)c1cc2ccc(O[C@@H]3O[C@H](CO)[C@H](O)[C@H](O)[C@H]3O)cc2oc1=O)c1c(F)c(F)c(F)c(F)c1F [Compound 37, ((((3-(2-pentafluorobenzoyl)amino)ethyl)amino)carbonyl)umbelliferyl β-D-galactopyranoside]
fluorescence relative to autofluorescent control cells [10]: greater than 25 fold | fluorescence versus autofluorescent cells [11]: do not show fluorescence greater than that observed for autofluorescent cells

Source: US5773236A, “Assay for glutathiane transferase using polyhaloaryl-substituted reporter molecules” (Molecule Probes, Inc., priority 1997, dated 1998)
